Measured values taken from ChEMBL document CHEMBL1149550, “5(Z)-benzylidene-1,2-dihydro-9-hydroxy-10-methoxy-2,2,4-trimethyl-5H-1-aza-6-oxa-chrysenes as non-steroidal glucocorticoid receptor modulators” (Bioorg Med Chem Lett, 2007).

Tests used:
Glucocorticoid receptor [1] = target: T1, Glucocorticoid receptor (Homo sapiens, UniProt P04150); format: functional
T1 sequence (P04150 whole entry): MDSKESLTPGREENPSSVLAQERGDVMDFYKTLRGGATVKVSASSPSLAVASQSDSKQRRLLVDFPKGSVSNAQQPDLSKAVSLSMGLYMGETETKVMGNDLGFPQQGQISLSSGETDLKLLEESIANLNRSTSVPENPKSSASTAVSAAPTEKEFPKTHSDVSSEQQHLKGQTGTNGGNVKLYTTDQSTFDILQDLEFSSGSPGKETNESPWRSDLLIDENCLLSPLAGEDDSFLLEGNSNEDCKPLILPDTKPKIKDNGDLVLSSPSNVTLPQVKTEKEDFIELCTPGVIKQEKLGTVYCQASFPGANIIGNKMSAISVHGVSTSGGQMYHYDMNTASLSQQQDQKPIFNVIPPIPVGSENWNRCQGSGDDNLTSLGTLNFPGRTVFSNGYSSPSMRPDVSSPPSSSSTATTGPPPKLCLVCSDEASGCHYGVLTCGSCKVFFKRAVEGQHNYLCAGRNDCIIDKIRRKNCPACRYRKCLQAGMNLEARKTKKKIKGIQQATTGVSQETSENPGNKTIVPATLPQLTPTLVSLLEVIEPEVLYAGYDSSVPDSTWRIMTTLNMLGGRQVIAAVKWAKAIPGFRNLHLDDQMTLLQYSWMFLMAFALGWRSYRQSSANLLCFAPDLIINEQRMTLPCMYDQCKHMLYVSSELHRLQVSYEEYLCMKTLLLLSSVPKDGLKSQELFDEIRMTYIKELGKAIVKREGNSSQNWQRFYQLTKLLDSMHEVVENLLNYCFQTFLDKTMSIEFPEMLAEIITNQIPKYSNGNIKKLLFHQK
Description: Antagonist activity at GR assessed as inhibition of dexamethasone-induced GRE activation

Glucocorticoid receptor [2] = target: T1, Glucocorticoid receptor; format: functional; remark: listed apart in the source
Description: Activity at GR assessed as repression of TNFalpha and IL 1-beta induced E-selectin response

Glucocorticoid receptor [3] = target: T1, Glucocorticoid receptor; format: functional; remark: listed apart in the source
Description: Agonist activity at GR by GRE activation assay

Glucocorticoid receptor [4] = target: T1, Glucocorticoid receptor
Description: Displacement of radiolabeled Dexamethasone from glucocorticoid receptor

Glucocorticoid receptor [5] = target: T1, Glucocorticoid receptor; remark: listed apart in the source
Description: Agonist activity at GR by GRE activation assay relative to Dexamethasone

Progesterone receptor = target: T2, Progesterone receptor (Homo sapiens, UniProt P06401); assay: Binding affinity at PR
T2 sequence (P06401 whole entry): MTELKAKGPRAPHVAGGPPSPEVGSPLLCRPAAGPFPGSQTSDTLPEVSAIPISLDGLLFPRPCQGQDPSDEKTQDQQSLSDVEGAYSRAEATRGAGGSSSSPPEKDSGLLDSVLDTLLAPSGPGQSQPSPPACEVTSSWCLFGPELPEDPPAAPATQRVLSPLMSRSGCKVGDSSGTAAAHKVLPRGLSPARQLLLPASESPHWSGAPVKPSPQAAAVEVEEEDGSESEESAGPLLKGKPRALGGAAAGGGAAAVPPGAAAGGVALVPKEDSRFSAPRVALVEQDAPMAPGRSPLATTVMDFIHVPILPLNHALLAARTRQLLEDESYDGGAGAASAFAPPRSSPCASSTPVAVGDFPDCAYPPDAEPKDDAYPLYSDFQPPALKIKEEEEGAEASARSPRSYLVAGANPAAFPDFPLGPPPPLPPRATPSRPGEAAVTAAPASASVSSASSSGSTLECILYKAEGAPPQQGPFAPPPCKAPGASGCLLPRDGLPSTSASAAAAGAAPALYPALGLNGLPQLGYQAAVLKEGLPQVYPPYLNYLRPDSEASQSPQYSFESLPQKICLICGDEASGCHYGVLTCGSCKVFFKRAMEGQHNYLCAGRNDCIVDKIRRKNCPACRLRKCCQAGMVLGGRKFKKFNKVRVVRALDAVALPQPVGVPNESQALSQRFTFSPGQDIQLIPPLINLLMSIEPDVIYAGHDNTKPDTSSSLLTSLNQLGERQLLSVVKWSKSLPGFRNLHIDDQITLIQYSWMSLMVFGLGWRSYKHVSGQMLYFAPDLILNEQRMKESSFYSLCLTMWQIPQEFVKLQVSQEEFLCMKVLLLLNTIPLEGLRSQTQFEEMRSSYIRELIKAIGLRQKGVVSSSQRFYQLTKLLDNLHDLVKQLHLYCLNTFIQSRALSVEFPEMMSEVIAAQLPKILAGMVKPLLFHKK

Androgen receptor = target: T3, Androgen receptor (Homo sapiens, UniProt P10275); assay: Binding affinity at AR
T3 sequence (P10275 whole entry): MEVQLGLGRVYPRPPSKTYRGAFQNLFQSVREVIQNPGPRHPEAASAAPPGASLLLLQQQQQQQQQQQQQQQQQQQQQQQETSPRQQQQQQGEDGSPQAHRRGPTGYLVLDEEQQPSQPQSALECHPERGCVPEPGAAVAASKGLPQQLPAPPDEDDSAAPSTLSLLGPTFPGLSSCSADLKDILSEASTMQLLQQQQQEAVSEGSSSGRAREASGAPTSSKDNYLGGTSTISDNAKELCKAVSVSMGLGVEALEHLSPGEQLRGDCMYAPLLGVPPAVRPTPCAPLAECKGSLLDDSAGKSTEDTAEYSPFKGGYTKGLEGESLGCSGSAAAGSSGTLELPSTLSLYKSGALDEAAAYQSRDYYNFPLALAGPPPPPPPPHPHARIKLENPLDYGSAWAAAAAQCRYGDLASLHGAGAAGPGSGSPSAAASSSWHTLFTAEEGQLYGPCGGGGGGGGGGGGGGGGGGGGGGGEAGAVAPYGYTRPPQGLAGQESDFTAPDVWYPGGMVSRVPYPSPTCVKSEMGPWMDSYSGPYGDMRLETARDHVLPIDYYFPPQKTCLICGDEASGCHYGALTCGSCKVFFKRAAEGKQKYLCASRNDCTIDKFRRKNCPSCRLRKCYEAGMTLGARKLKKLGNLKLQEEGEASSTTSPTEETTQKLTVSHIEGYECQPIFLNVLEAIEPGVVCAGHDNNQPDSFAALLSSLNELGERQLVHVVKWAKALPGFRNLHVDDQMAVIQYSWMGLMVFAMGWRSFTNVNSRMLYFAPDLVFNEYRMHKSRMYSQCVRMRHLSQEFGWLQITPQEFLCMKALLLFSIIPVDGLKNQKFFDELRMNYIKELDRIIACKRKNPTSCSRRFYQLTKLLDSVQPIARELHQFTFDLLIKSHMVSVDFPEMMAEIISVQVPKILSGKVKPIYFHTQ

## COc1c(O)ccc2c1-c1ccc3c(c1/C(=C/c1ccc(F)cc1S(=O)(=O)N1CCCCC1)O2)C(C)=CC(C)(C)N3
Glucocorticoid receptor [1]
  IC50: 6.6 nM
Glucocorticoid receptor [2]
  IC50: 22 nM
Glucocorticoid receptor [3]
  EC50: 108 nM
Glucocorticoid receptor [4]
  Ki: 94 nM

## COc1c(O)ccc2c1-c1ccc3c(c1/C(=C/c1cccc(-c4ccccc4)c1)O2)C(C)=CC(C)(C)N3
Glucocorticoid receptor [1]
  IC50: 2.3 nM
Glucocorticoid receptor [2]
  IC50: 12 nM
Glucocorticoid receptor [3]
  EC50: > 1000 nM
Glucocorticoid receptor [5]
  EC50: > 1000 nM
Glucocorticoid receptor [4]
  Ki: 7.2 nM

## COc1c(O)ccc2c1-c1ccc3c(c1/C(=C/c1ccc(C(C)C)cc1)O2)C(C)=CC(C)(C)N3
Glucocorticoid receptor [1]
  EC50: > 1000 nM
Glucocorticoid receptor [3]
  EC50: 455 nM
Glucocorticoid receptor [4]
  Ki: 2.9 nM

## COc1c(O)ccc2c1-c1ccc3c(c1/C(=C/c1cccc(-c4ccsc4)c1)O2)C(C)=CC(C)(C)N3
Glucocorticoid receptor [1]
  IC50: 0.5 nM
Glucocorticoid receptor [2]
  IC50: 1.4 nM
Glucocorticoid receptor [3]
  EC50: > 1000 nM
Glucocorticoid receptor [5]
  EC50: > 1000 nM
Glucocorticoid receptor [4]
  Ki: 3.1 nM

## COc1c(O)ccc2c1-c1ccc3c(c1/C(=C/c1cccc(C(F)(F)F)c1C)O2)C(C)=CC(C)(C)N3
Glucocorticoid receptor [1]
  IC50: 2.6 nM
Glucocorticoid receptor [2]
  IC50: 15 nM
Glucocorticoid receptor [4]
  Ki: 2.6 nM

## COc1c(O)ccc2c1-c1ccc3c(c1/C(=C/c1cccc(Oc4ccccc4)c1)O2)C(C)=CC(C)(C)N3
Glucocorticoid receptor [1]
  IC50: 1.9 nM
Glucocorticoid receptor [2]
  IC50: 74 nM
Glucocorticoid receptor [3]
  EC50: > 1000 nM
Glucocorticoid receptor [5]
  EC50: > 1000 nM
Glucocorticoid receptor [4]
  Ki: 4.6 nM

## COc1c(O)ccc2c1-c1ccc3c(c1/C(=C/c1cccc(C)n1)O2)C(C)=CC(C)(C)N3
Glucocorticoid receptor [1]
  IC50: 1.1 nM
Glucocorticoid receptor [2]
  IC50: 4.9 nM
Glucocorticoid receptor [3]
  EC50: 0.7 nM
Glucocorticoid receptor [4]
  Ki: 1.6 nM

## COc1c(O)ccc2c1-c1ccc3c(c1/C(=C/c1ccc(C)cc1)O2)C(C)=CC(C)(C)N3
Glucocorticoid receptor [1]
  IC50: 12 nM
Glucocorticoid receptor [2]
  IC50: 15 nM
Glucocorticoid receptor [3]
  EC50: 38 nM
Glucocorticoid receptor [4]
  Ki: 1.9 nM

## COc1c(O)ccc2c1-c1ccc3c(c1/C(=C/c1cccc(OC(F)(F)F)c1)O2)C(C)=CC(C)(C)N3
Glucocorticoid receptor [1]
  IC50: 1.9 nM
Glucocorticoid receptor [2]
  IC50: 4.7 nM
Glucocorticoid receptor [3]
  EC50: > 1000 nM
Glucocorticoid receptor [5]
  EC50: > 1000 nM
Glucocorticoid receptor [4]
  Ki: 4.1 nM

## COc1c(O)ccc2c1-c1ccc3c(c1/C(=C/c1ccc(O)cc1)O2)C(C)=CC(C)(C)N3
Glucocorticoid receptor [1]
  IC50: 0.4 nM
Glucocorticoid receptor [2]
  IC50: 1 nM
Glucocorticoid receptor [3]
  EC50: 1.1 nM
Glucocorticoid receptor [4]
  Ki: 1.1 nM

## CCc1ccc(/C=C2\Oc3ccc(O)c(OC)c3-c3ccc4c(c32)C(C)=CC(C)(C)N4)cc1
Glucocorticoid receptor [1]
  EC50: > 1000 nM
Glucocorticoid receptor [3]
  EC50: 207 nM

## COc1c(O)ccc2c1-c1ccc3c(c1/C(=C/c1ccc(-c4ccccc4)cc1)O2)C(C)=CC(C)(C)N3
Glucocorticoid receptor [1]
  EC50: > 1000 nM
Glucocorticoid receptor [2]
  IC50: 77 nM
Glucocorticoid receptor [3]
  EC50: 33 nM
Glucocorticoid receptor [4]
  Ki: 4.4 nM

## COc1c(O)ccc2c1-c1ccc3c(c1/C(=C/c1cccc(C)c1)O2)C(C)=CC(C)(C)N3
Progesterone receptor
  Ki: 400 nM
Androgen receptor
  Ki: 570 nM

## COc1c(O)ccc2c1-c1ccc3c(c1/C(=C/c1ccccc1Cl)O2)C(C)=CC(C)(C)N3
Glucocorticoid receptor [1]
  IC50: 24 nM
Glucocorticoid receptor [2]
  IC50: 18 nM
Glucocorticoid receptor [3]
  EC50: 18 nM
Glucocorticoid receptor [4]
  Ki: 15 nM

## COc1c(O)ccc2c1-c1ccc3c(c1/C(=C/c1ccccc1F)O2)C(C)=CC(C)(C)N3
Glucocorticoid receptor [1]
  IC50: 1.3 nM
Glucocorticoid receptor [2]
  IC50: 1.4 nM
Glucocorticoid receptor [3]
  EC50: 0.6 nM
Glucocorticoid receptor [4]
  Ki: 0.8 nM

## COc1c(O)ccc2c1-c1ccc3c(c1/C(=C/c1cccc(C(F)(F)F)c1)O2)C(C)=CC(C)(C)N3
Glucocorticoid receptor [1]
  IC50: 2.5 nM
Glucocorticoid receptor [2]
  IC50: 4.1 nM
Glucocorticoid receptor [3]
  EC50: > 1000 nM
Glucocorticoid receptor [5]
  EC50: > 1000 nM
Glucocorticoid receptor [4]
  Ki: 2.7 nM

## COc1c(O)ccc2c1-c1ccc3c(c1/C(=C/c1cccc(-c4cccnc4)c1)O2)C(C)=CC(C)(C)N3
Glucocorticoid receptor [1]
  IC50: 0.7 nM
Glucocorticoid receptor [2]
  IC50: 3.6 nM
Glucocorticoid receptor [3]
  EC50: > 1000 nM
Glucocorticoid receptor [5]
  EC50: > 1000 nM
Glucocorticoid receptor [4]
  Ki: 1.5 nM

## COc1c(O)ccc2c1-c1ccc3c(c1/C(=C/c1ccc(OC(F)(F)F)cc1)O2)C(C)=CC(C)(C)N3
Glucocorticoid receptor [1]
  EC50: > 1000 nM
Glucocorticoid receptor [2]
  IC50: 91 nM
Glucocorticoid receptor [3]
  EC50: > 1000 nM
Glucocorticoid receptor [4]
  Ki: 4.3 nM

## COc1c(O)ccc2c1-c1ccc3c(c1/C(=C/c1ccc(Cl)cc1)O2)C(C)=CC(C)(C)N3
Glucocorticoid receptor [1]
  IC50: > 1000 nM
Glucocorticoid receptor [2]
  IC50: 12 nM
Glucocorticoid receptor [3]
  EC50: 43 nM
Glucocorticoid receptor [4]
  Ki: 1.7 nM

## COc1c(O)ccc2c1-c1ccc3c(c1/C(=C/c1ccccc1-c1ccccc1)O2)C(C)=CC(C)(C)N3
Glucocorticoid receptor [1]
  IC50: 3.6 nM
Glucocorticoid receptor [2]
  IC50: 4.4 nM
Glucocorticoid receptor [3]
  EC50: 4.5 nM
Glucocorticoid receptor [4]
  Ki: 6.7 nM

## COc1ccc(/C=C2\Oc3ccc(O)c(OC)c3-c3ccc4c(c32)C(C)=CC(C)(C)N4)cc1
Glucocorticoid receptor [1]
  EC50: > 1000 nM
Glucocorticoid receptor [2]
  IC50: 10 nM
Glucocorticoid receptor [3]
  EC50: 133 nM
Glucocorticoid receptor [4]
  Ki: 2.7 nM

## COc1c(O)ccc2c1-c1ccc3c(c1/C(=C/c1ccccc1C)O2)C(C)=CC(C)(C)N3
Glucocorticoid receptor [1]
  IC50: 0.4 nM
Glucocorticoid receptor [2]
  IC50: 1 nM
Glucocorticoid receptor [3]
  EC50: 3.4 nM
Glucocorticoid receptor [4]
  Ki: 1.7 nM
